BindingDB's records for doi:10.1002/cbic.201600513 (University of Florida, 2017)

How the values were obtained:
Carbonic anhydrase 12 = Carbonic anhydrase 12 (Homo sapiens, UniProt O43570); experiment: CA Inhibition Assay
Excerpt: (§1) CA-catalyzed CO2 hydration activity methods were published previously by Cornelio et al. as part of a larger series of benzenesulfonamide-based inhibitors with aryl substitutions in the para position of the benzene ring.

Carbonic anhydrase 2 = Carbonic anhydrase 2 (Homo sapiens, UniProt P00918); experiment: CA Inhibition Assay
Excerpt: as §1

Sequence of Carbonic anhydrase 12 (O43570 whole entry): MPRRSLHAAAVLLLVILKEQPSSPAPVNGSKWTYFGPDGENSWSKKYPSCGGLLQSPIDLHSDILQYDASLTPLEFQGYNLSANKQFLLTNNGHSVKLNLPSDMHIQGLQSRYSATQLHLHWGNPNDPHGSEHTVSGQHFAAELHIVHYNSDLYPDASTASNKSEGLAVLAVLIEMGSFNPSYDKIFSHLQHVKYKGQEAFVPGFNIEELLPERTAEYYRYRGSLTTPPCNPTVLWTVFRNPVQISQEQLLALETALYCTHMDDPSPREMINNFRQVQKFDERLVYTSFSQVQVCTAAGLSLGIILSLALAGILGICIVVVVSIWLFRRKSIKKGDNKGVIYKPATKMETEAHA

Row | Ki (Carbonic anhydrase 12) [nM] | Ki (Carbonic anhydrase 2) [nM] | SMILES
1 | 0.6 | 2 | NS(=O)(=O)c1ccc(-c2cccc(C=O)c2)cc1 [4-(3-formylphenyl)-benzenesulfonamide (4e)]
2 |  | 0.8 | NS(=O)(=O)c1ccc(-c2ccccc2)cc1 [4-(phenyl)-bezenesulfonamide (4a)]
